Columns and labels:
[1] = Safety assessments (adverse events, laboratory abnormalities, vital signs) in 24-week open-label clinical study; format: in vivo, human
Excerpt: This is a proof of concept, open-label study evaluating the safety, tolerability, and efficacy of monotherapy and combination regimens in subjects with NASH. Subjects meeting the study's entry criteria are randomly assigned in a 1:1:1:1:1 ratio to 1 of 5 treatment groups, with approximately 20 subjects in each group, as shown in the FIG. 2. Randomization is stratified by the presence or absence of type 2 diabetes mellitus, as determined by medical history or based on the Screening laboratory values if previously undiagnosed (hemoglobin A1c [HbA1c]≥6.5%). The study may last up to 35 weeks, which includes a 2-week Screening period, a 2 week Pre-Treatment period, up to a 24-week Treatment period, and a 7-week Follow-Up period.
Study drug dosing and administration is as follows, based on treatment group randomization as summarized in FIG. 2: • Treatment Group A: Semaglutide administered subcutaneously with pre-filled pen-injector once weekly. • Treatment Group B: Semaglutide administered subcutaneously with pre-filled pen-injector once weekly, one firsocostat 20 mg tablet, administered orally once daily without regard to food. • Treatment Group C: Semaglutide administered subcutaneously with pre-filled pen-injector once weekly, one cilofexor 30 mg tablet, administered orally once daily without regard to food. • Treatment Group D: Semaglutide administered subcutaneously with pre-filled pen-injector once weekly, one cilofexor 100 mg tablet, administered orally once daily without regard to food. • Treatment Group E: Semaglutide administered subcutaneously with pre-filled pen-injector once weekly, one firsocostat 20 mg tablet administered orally once daily and one cilofexor 30 mg tablet administered orally once daily, both without regard to food.
Semaglutide was administered by subcutaneous injection once weekly with a prefilled pen-injector and was initiated at a starting dose of […], which was increased at 4-week intervals (to 0.5 mg, 1.0 mg, and 1.7 mg) until the recommended target dose of 2.4 mg was reached (from week 17 onwards). Patients who could not tolerate the planned dose-escalation schedule were encouraged to extend any single dose step for a maximum of one additional week, and to re-attempt dose escalation to 2.4 mg at least once. Cilofexor and firsocostat were given orally once daily with or without food.
Safety assessments included adverse events, clinical laboratory assessments, vital signs, electrocardiograms (ECG), and physical examination. Clinical and laboratory adverse events were coded using the Medical Dictionary for Regulatory Activities (MedDRA), version 23.0.
Safety analyses were performed on the safety analysis set, which included all patients who took at least one dose of any study drug. Efficacy analyses were performed on the full analysis set (FAS), which included all randomized patients who received at least one dose of any study drug. Since all dosed subjects were randomized, these two analysis sets included the same patients.

[2] = Serum lipids, change from baseline to week 24; format: in vivo, human; conditions: LS mean
Method: In general, subjects fast (no food or drink, except water) for approximately 10 hours prior to the blood sample collection.
Additional tests include HIV-1 (reflex to HIV-1 RNA), HBV (HBsAg), HCV (reflex to HCV RNA) serology, homeostasis model assessment of Insulin resistance (HOMA-IR, based on fasting glucose and insulin), eGFR as calculated by MDRD, HbA1c, C-peptide, calcitonin, insulin, lipid panel, genomic sample collection, ELF™ Test, and FibroTest®. Biomarker tests include, but are not limited to C-reactive protein (CRP), NMR LipoProfile®, apolipoproteins, and adiponectin.
Imaging assessments (MRI-PDFF, liver stiffness by 2-D magnetic resonance elastography [MRE] and TE) were conducted at screening (or within 4 weeks prior to screening), and at weeks 12 and 24. TE was performed by experienced operators, and MRI-PDFF and MRE images were analyzed by a central reader as previously described [Patel et al. Hepatology. 2020; 72(1):58-71; Loomba et al. Gastroenterology. 2018; 155(5):1463-1473; Loomba et al. Hepatology. 2020 Nov. 10. doi: 10.1002/hep.31622]. Serum samples were collected at screening, baseline, and every 4 weeks through to week 24 for clinical laboratory values; blood biomarkers were assessed at screening, baseline, and weeks 12 and 24.
All protocol-defined, efficacy analyses were exploratory in nature and descriptive statistics are provided. Comparative analyses between combination regimens and semaglutide monotherapy were conducted post-hoc. For evaluation of changes from baseline to week 24, analysis of covariance (ANCOVA) with adjustment for baseline value and diabetes status was used, and least-squares (LS) means, LS mean differences, associated 95% confidence intervals (CI), and p-values were calculated. Proportions of binary responders were compared by Fisher's exact test.

CC[C@H](C)[C@H](NC(=O)[C@H](Cc1ccccc1)NC(=O)[C@H](CCC(=O)O)NC(=O)[C@H](CCCCNC(=O)COCCOCCNC(=O)COCCOCCNC(=O)CC[C@H](NC(=O)CCCCCCCCCCCCCCCCC(=O)O)C(=O)O)NC(=O)[C@H](C)NC(=O)[C@H](C)NC(=O)[C@H](CCC(N)=O)NC(=O)CNC(=O)[C@H](CCC(=O)O)NC(=O)[C@H](CC(C)C)NC(=O)[C@H](Cc1ccc(O)cc1)NC(=O)[C@H](CO)NC(=O)[C@H](CO)NC(=O)[C@@H](NC(=O)[C@H](CC(=O)O)NC(=O)[C@H](CO)NC(=O)[C@@H](NC(=O)[C@H](Cc1ccccc1)NC(=O)[C@@H](NC(=O)CNC(=O)[C@H](CCC(=O)O)NC(=O)C(C)(C)NC(=O)[C@@H](N)Cc1cnc[nH]1)[C@@H](C)O)[C@@H](C)O)C(C)C)C(=O)N[C@@H](C)C(=O)N[C@@H](Cc1c[nH]c2ccccc12)C(=O)N[C@@H](CC(C)C)C(=O)N[C@H](C(=O)N[C@@H](CCCNC(=N)N)C(=O)NCC(=O)N[C@@H](CCCNC(=N)N)C(=O)NCC(=O)O)C(C)C [Semaglutide 2.4 mg, Semaglutide]
Abdominal distension ([1]; human, in vivo): 0 n | Gastroenteritis ([1]; human, in vivo): 0 n | Gastroesophageal reflux disease ([1]; human, in vivo): 0 n | Hypoglycaemia ([1]; human, in vivo): 0 n | Laboratory abnormalities, Grade 3 ([1]; human, in vivo): 0 n | Laboratory abnormalities, Grade 4 ([1]; human, in vivo): 0 n | Pruritus (adverse event of interest) ([1]; human, in vivo): 0 n | Serious adverse events (nature) ([1]; human, in vivo): grade 3 diarrhea and vomiting | Death ([1]; patients): 0 n | HDL cholesterol, least squares mean change from baseline to week 24 [2]: -1 mg/dL | LDL cholesterol, least squares mean change from baseline to week 24 [2]: -9 mg/dL | Total cholesterol, least squares mean change from baseline to week 24 [2]: -15 mg/dL | Triglycerides, least squares mean change from baseline to week 24 [2]: -28 mg/dL | VLDL cholesterol, least squares mean change from baseline to week 24 [2]: -7 mg/dL

Reference: patent US20220047678A1, “Combination Therapy for Treatment of Liver Disease” (Gilead Sciences, Inc., priority 2020, published 2022)
